Laboratory results published in the supplement of paper PMC10331698.
± gives the standard deviation of the averaged measurements.

How the values were obtained:
Experiment in all cases: level (log10 ratio to DMSO vehicle control); higher = higher biomarker level / cell amount than vehicle control
Conditions in all cases: in DMSO
[1] = compound: OCCC(F)(F)C(F)(F)C(F)(F)C(F)(F)C(F)(F)C(F)(F)F [6:2 Fluorotelomer alcohol]
Experimental: (§1)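 BioMAP Diversity Plus panel of 12 human primary cell co-culture systems (3C, 4H, LPS, SAg, BT, BF4T, BE3C, CASM3C, HDF3CGF, KF3CT, MyoF, Mphg). Compounds were added 1 h before stimulation and left for 24 h (MyoF 48 h; BT 72 h for soluble read-outs or 6 d for IgG). Biomarkers were read by ELISA, cytotoxicity by SRB, PBMC viability and proliferation by Alamar Blue. Each well value was divided by the mean of 8 DMSO control wells on the same plate and log10 transformed; duplicate blinded samples were tested at 4 concentrations.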

[2] = compound: FC(F)C(F)(F)COCC1CO1 [((2,2,3,3-Tetrafluoropropoxy)methyl)oxirane]
Experimental: as §1

[3] = compound: O=C(O)C(F)(F)OC(F)(F)C(F)(F)OC(F)(F)F [Perfluoro-3,6-dioxaheptanoic acid]
Experimental: as §1

[4] = compound: C=CC(F)(F)C(F)(F)C(F)(F)C(F)(F)C(F)(F)C(F)(F)C(F)(F)C(F)(F)C=C [1,8-Divinylperfluorooctane]
Experimental: as §1

[5] = compound: O=C(O)C(F)(F)C(F)(F)C(F)(F)C(F)(F)C(F)(F)C(F)(F)C(F)(F)C(F)F [9-H-Perfluorononanoic acid]
Experimental: as §1

[6] = compound: O=C(O)C(F)(F)OC(F)(F)C(F)(F)OC(F)(F)C(=O)O [Perfluoro-3,6-dioxaoctane-1,8-dioic acid]
Experimental: as §1

| Test System | level (log10) ([1]; 6700 nM) | level (log10) ([1]; 20000 nM) | level (log10) ([2]; 6700 nM) | level (log10) ([2]; 20000 nM) | level (log10) ([2]; 60000 nM) | level (log10) ([3]; 6700 nM) | level (log10) ([3]; 20000 nM) | level (log10) ([3]; 60000 nM) | level (log10) ([4]; 6700 nM) | level (log10) ([4]; 20000 nM) | level (log10) ([5]; 6700 nM) | level (log10) ([5]; 20000 nM) | level (log10) ([5]; 60000 nM) | level (log10) ([6]; 6700 nM) | level (log10) ([6]; 20000 nM) | level (log10) ([6]; 60000 nM) |
| --- | --- | --- | --- | --- | --- | --- | --- | --- | --- | --- | --- | --- | --- | --- | --- | --- |
| SAg:CXCL9/MIG | -0.0095 ± 0.0021 | -0.0055 ± 0.00071 | -0.002 ± 0.011 | -0.006 ± 0.014 | 0.0065 ± 0.0092 | 0.006 ± 0.014 | 0.001 ± 0.014 | 0.0055 ± 0.0078 | -0.0115 ± 0.0092 | 0.0055 ± 0.018 | -0.01 ± 0.017 | -0.0055 ± 0.015 | 0.0055 ± 0.0064 | -0.0065 ± 0.005 | 0.004 ± 0.0057 | -0.001 ± 0.013 |
| BT:sIL-17F | -0.087 ± 0.17 | -0.146 ± 0.18 | -0.0295 ± 0.12 | 0.001 ± 0.13 | 0.0005 ± 0.061 | -0.0035 ± 0.18 | -0.033 ± 0.027 | -0.0495 ± 0.021 | 0.012 ± 0.037 | 0.051 ± 0.0057 | 0.0055 ± 0.0064 | 0.0945 ± 0.035 | 0.031 ± 0.0085 | -0.146 ± 0.0057 | -0.102 ± 0.057 | -0.0675 ± 0.022 |
| BE3C:HLA-DR | 0.003 | 0.005 ± 0.02 | 0.001 ± 0.0099 | -0.0055 ± 0.0035 | -0.07 ± 0.14 | -0.0205 ± 0.054 | -0.01 ± 0.035 | -0.0225 ± 0.056 | 0.021 ± 0.016 | 0.014 | -0.102 ± 0.042 | -0.14 ± 0.052 | -0.15 ± 0.0014 | -0.0025 ± 0.00071 | -0.02 ± 0.013 | 0.0085 ± 0.025 |
| BE3C:IL-1alpha | 0.019 ± 0.016 | 0.008 ± 0.0057 | 0.0015 ± 0.029 | -0.0015 ± 0.0078 | -0.008 ± 0.014 | -0.035 ± 0.04 | -0.0345 ± 0.032 | -0.0385 ± 0.046 | 0.001 ± 0.02 | 0.026 ± 0.0057 | 0.032 ± 0.0028 | 0.014 ± 0.028 | 0.026 ± 0.0028 | 0.0105 ± 0.0092 | 0.013 ± 0.0099 | 0.0235 ± 0.063 |
| LPS:M-CSF | 0.0085 ± 0.0035 | -0.005 ± 0.021 | 0.0075 ± 0.011 | 0.009 ± 0.017 | -0.0155 ± 0.036 | -0.0505 ± 0.056 | -0.014 ± 0.055 | -0.0185 ± 0.057 | -0.029 | -0.007 ± 0.031 | -0.025 ± 0.04 | -0.0085 ± 0.016 | 0.0525 ± 0.044 | 0.0035 ± 0.005 | -0.002 ± 0.0028 | 0.021 |
| LPS:CD141/Thrombomodulin | 0.002 ± 0.024 | 0.013 ± 0.0042 | 0.0055 ± 0.016 | -0.003 ± 0.03 | -0.049 ± 0.013 | -0.033 ± 0.081 | -0.018 ± 0.067 | -0.0165 ± 0.012 | -0.0025 ± 0.00071 | 0.011 ± 0.021 | 0.015 ± 0.017 | 0.018 ± 0.0057 | 0.027 ± 0.03 | 0.0085 ± 0.019 | 0.0165 ± 0.0092 | 0.003 ± 0.027 |
| BT:sIL-6 | 0.0115 ± 0.032 | -0.038 ± 0.028 | 0.054 ± 0.051 | 0.0155 ± 0.0064 | -0.0365 ± 0.005 | 0.021 ± 0.059 | -0.009 ± 0.059 | -0.0235 ± 0.064 | 0.039 ± 0.016 | 0.0415 ± 0.071 | -0.0315 ± 0.0064 | 0.06 ± 0.064 | -0.0215 ± 0.079 | 0.018 ± 0.013 | -0.007 ± 0.0042 | -0.0375 ± 0.00071 |
| LPS:CD142/Tissue Factor | 0.0285 ± 0.026 | -0.007 ± 0.013 | 0.013 ± 0.024 | 0.006 ± 0.0057 | -0.019 ± 0.023 | -0.0335 ± 0.011 | 0.0145 ± 0.023 | 0.009 ± 0.0028 | -0.035 ± 0.035 | -0.043 ± 0.057 | -0.03 ± 0.021 | -0.024 ± 0.011 | 0.0785 ± 0.039 | 0.034 ± 0.038 | 0.0025 ± 0.016 | 0.015 ± 0.061 |
| LPS:IL-1alpha | 0 ± 0.045 | -0.011 ± 0.016 | -0.046 ± 0.0042 | -0.026 ± 0.021 | 0.022 ± 0.024 | -0.0605 ± 0.0035 | -0.0075 ± 0.0064 | -0.0055 ± 0.036 | 0.0095 ± 0.019 | 0.0295 ± 0.012 | 0.0095 ± 0.042 | -0.0105 ± 0.00071 | -0.014 ± 0.0099 | -0.032 ± 0.013 | -0.0125 ± 0.013 | 0.0195 ± 0.049 |
| BF4T:CCL2/MCP-1 | 0.024 ± 0.033 | 0.02 ± 0.014 | -0.0155 ± 0.019 | -0.0095 ± 0.013 | 0.011 ± 0.044 | -0.0235 ± 0.0021 | 0.002 ± 0.0071 | -0.0255 ± 0.023 | -0.007 ± 0.0028 | 0.014 ± 0.047 | -0.164 ± 0.011 | -0.19 ± 0.0057 | -0.122 ± 0.036 | 0.018 ± 0.027 | 0.0135 ± 0.053 | 0.0265 ± 0.043 |
| 4H:CD87/uPAR | -0.002 ± 0.033 | 0.001 ± 0.033 | -0.013 | -0.0205 ± 0.03 | -0.012 ± 0.0042 | -0.0205 ± 0.023 | -0.019 ± 0.011 | -0.019 ± 0.018 | -0.0125 ± 0.015 | 0.0215 ± 0.0064 | 0.002 ± 0.037 | 0.027 ± 0.017 | 0.019 ± 0.013 | -0.0095 ± 0.032 | -0.009 ± 0.037 | 0.001 ± 0.011 |
| BF4T:CD90 | -0.0035 ± 0.0021 | -0.0165 ± 0.011 | -0.006 ± 0.03 | 0.004 ± 0.0057 | 0.014 ± 0.016 | -0.012 ± 0.0042 | 0.001 ± 0.0099 | -0.011 ± 0.0014 | 0.0025 ± 0.0064 | -0.002 ± 0.0071 | -0.0705 ± 0.021 | -0.0605 ± 0.013 | -0.0685 ± 0.015 | -0.012 ± 0.0028 | -0.0085 ± 0.005 | -0.004 ± 0.0028 |
| 4H:CD62P/P-selectin | 0.0165 ± 0.012 | -0.004 ± 0.02 | 0.0275 ± 0.043 | -0.0285 ± 0.087 | -0.051 ± 0.071 | -0.0245 ± 0.061 | 0.0025 ± 0.0092 | -0.0185 ± 0.018 | -0.009 ± 0.018 | -0.035 ± 0.064 | 0.033 ± 0.078 | 0.0825 ± 0.0035 | 0.149 ± 0.014 | -0.004 | 0.014 ± 0.0014 | 0.0275 ± 0.013 |
| BF4T:uPA | -0.0185 ± 0.012 | -0.006 ± 0.011 | -0.003 ± 0.0028 | -0.0005 ± 0.013 | 0.0135 ± 0.036 | -0.04 ± 0.027 | -0.011 ± 0.011 | 0.0005 ± 0.025 | -0.0045 ± 0.0064 | -0.0095 ± 0.012 | -0.0085 ± 0.016 | -0.0195 ± 0.012 | 0.001 ± 0.013 | -0.007 ± 0.013 | -0.015 ± 0.0028 | 0.0035 ± 0.03 |
| SAg:CCL2/MCP-1 | -0.0165 ± 0.0035 | -0.0115 ± 0.00071 | -0.0305 ± 0.046 | -0.0185 ± 0.016 | -0.014 ± 0.011 | 0.0125 ± 0.032 | 0.002 ± 0.035 | -0.0025 ± 0.033 | -0.001 ± 0.0028 | 0.004 ± 0.0014 | -0.009 ± 0.014 | -0.022 ± 0.0014 | 0.0245 ± 0.04 | 0.0065 ± 0.0035 | -0.0145 ± 0.00071 | -0.0095 ± 0.0064 |
| LPS:CD62E/E-Selectin | 0.01 ± 0.038 | -0.025 ± 0.025 | 0.012 ± 0.02 | 0.0055 ± 0.033 | 0.0145 ± 0.033 | 0 ± 0.021 | -0.018 ± 0.05 | -0.006 ± 0.017 | -0.0215 ± 0.029 | -0.023 ± 0.018 | 0.0005 ± 0.042 | 0.003 ± 0.0071 | 0.0525 ± 0.0035 | 0.019 ± 0.013 | -0.0035 ± 0.0092 | -0.003 ± 0.0028 |
| 3C:Proliferation | -0.0325 ± 0.066 | -0.015 ± 0.086 | -0.034 ± 0.016 | -0.0165 ± 0.00071 | -0.039 ± 0.02 | -0.0305 ± 0.025 | -0.031 ± 0.05 | -0.0205 ± 0.0064 | 0 ± 0.016 | 0 ± 0.013 | -0.013 ± 0.017 | 0.004 ± 0.037 | -0.023 ± 0.031 | 0.002 ± 0.0028 | -0.038 ± 0.044 | -0.033 ± 0.014 |
| LPS:CXCL8/IL-8 | 0.071 ± 0.038 | 0.039 ± 0.023 | -0.035 ± 0.038 | -0.024 ± 0.031 | 0.004 ± 0.0014 | 0.007 ± 0.028 | 0.0265 ± 0.0064 | 0.0505 ± 0.0078 | -0.0055 ± 0.005 | 0.0145 ± 0.0078 | 0.046 ± 0.047 | 0.102 ± 0.021 | 0.17 ± 0.033 | 0.015 | 0.0085 ± 0.021 | 0.0385 ± 0.021 |
